Reference: patent US20230212571A1, “COMPOSITIONS AND METHODS FOR DELIVERING POLYNUCLEOTIDES” (NeOnc Technologies, Inc., priority 2020, published 2023)

Columns and labels:
AVM-BEC [1] = test: ELISA of AVM-BEC supernatants; assay type: cell-based, human
From the text: (§1) Human surgical specimens were obtained following written informed consent from patients in accordance with Declaration of Helsinki guidelines and the Institutional Review Board (HS-04B053), at Keck School of Medicine, USC. AVM-BECs were isolated from brain tissues of patients who underwent microsurgical AVM resection. Control BECs were isolated from the structurally normal […] of patients who underwent temporal lobectomy for intractable epilepsy. Endothelial cell (EC) isolation and culture were described^5,9. (Stapleton C J, Armstrong D L, Zidovetzki R, Liu C Y, Giannotta S L, Hofman F M. Thrombospondin-1 modulates the angiogenic phenotype of human cerebral arteriovenous malformation endothelial cells. Neurosurgery. 2011; 68(5):1342-1353) (Ferreira R, Santos T, Amar A, et al. Argonaute-2 promotes miR-18a entry in human brain endothelial cells. J Am Heart Assoc. 2014; 3(3):e000968) ECs were only used between passages 3-5. Experiments were performed under shear flow conditions (12 dyn/cm^2) to reproduce arterial flow^6. (Ferreira R, Santos T, Amar A, et al. MicroRNA-18a improves human cerebral arteriovenous malformation endothelial cell function. Stroke. 2014; 45(1):293-297). For hypoxic experiments, cells were cultured in a Galaxy 48R (Eppendorf) incubator at 3% O2. MicroRNAs were co-administered with Ago-2 to increase the cellular uptake of miR-18a^9 (Ferreira R, Santos T, Amar A, et al. Argonaute-2 promotes miR-18a entry in human brain endothelial cells. J Am Heart Assoc. 2014; 3(3):e000968) (FIG. 9). Methods regarding cell treatments and transfections were included in Data.
(§2) Small interfering RNA transfection was performed as previously described^5. Briefly, ECs were transfected with small interfering RNA (siRNA) against ID1 or PAI-1 (Thermo Fisher Scientific), or small interfering control (Santa Cruz Biotechnology) constructs using Lipofectamine RNAiMax (Thermo Fisher Scientific) per the manufacturer's instructions. Knockdown of ID1 or PAI-1 was confirmed by quantitative real-time polymerase chain reaction as described^6 (FIG. 19). The sequences of the forward and reverse primers for ID1 and PAI-1 were included in Table 2.
(§3) Plasmid constructs pcDNA3-ALK2^WT (Addgene #80870) and pcDNA3-ALK2^Q207D (Addgene #80871) were a gift from Aristidis Moustakas^7. (Meyer B, Schaller C, Frenkel C, Ebeling B, Schramm J. Distributions of local oxygen saturation and its response to changes of mean arterial blood pressure in the cerebral cortex adjacent to arteriovenous malformations. Stroke. 1999; 30(12):2623-2630) 10^4 AVM-BEC were seeded 24 h before transfection. The plasmid vector containing the 3′ untranslated region (3′UTR) of human BMP4, pRP [Exp]-Puro-CMV>Luciferase:{hBMP4_3′UTR}, was constructed and packaged by VectorBuilder. The vector ID is VB200205-1078zdv, which can be used to retrieve detailed information about the vector on vectorbuilder.com. Transient transfections were performed with Lipofectamine RNAiMax (Thermo Fisher Scientific) according to the manufacturer's instructions. After 4 h, medium was replaced by fresh medium containing microRNA.
(§4) MiR-18a (hsa-miR-18a-5p, 40 nM, Dharmacon) or a scramble microRNA (40 nM, Dharmacon) in nuclease-free water was added with argonaute 2 (Ago-2, 0.4 nM, Abcam) as the microRNA carrier and stabilizer^9. (Ferreira R, Santos T, Amar A, et al. Argonaute-2 promotes miR-18a entry in human brain endothelial cells. J Am Heart Assoc. 2014; 3(3):e000968). No transfection reagent was used with miR-18a or scramble microRNA treatments. Recombinant human TSP-1 (R&D Systems) stock solution was prepared in PBS and further diluted in culture medium to be used at a final concentration of 1000 ng/mL. Cells were treated during 24 h for mRNA and 48 h for protein expression studies. NEO100 (NeOnc Technologies) stock was prepared in DMSO and used immediately or stored at −20° C. […]

BEC = test: ELISA of control BEC supernatants; assay type: cell-based, human; conditions: control BEC supernatants, normoxia
From the text: as §1, §2, §3, §4

AVM-BEC [2] = conditions: previous studies (Stapleton 2011); cited from earlier work

TSP-1: Recombinant human TSP-1 (R&D Systems), used at 1000 ng/mL
levels of secreted PAI-1 (AVM-BEC [1]; AVM-BEC supernatants, normoxia, vs scramble microRNA): decreased | levels of secreted VEGF (AVM-BEC [1]; AVM-BEC supernatants, normoxia, decrease only reached significance with miR-18a): decreased | PAI-1 secretion (AVM-BEC [1]; AVM-BEC, hypoxia 3% oxygen): neither treatment with TSP-1 (P=0.3917), nor ID1 knock-down (P=0.1701) were able to significantly decrease the levels of PAI-1 | levels of secreted PAI-1 (BEC): without affecting control BEC | levels of secreted VEGF (BEC): without affecting control BEC | migration rate of AVM-BEC (AVM-BEC [2]): decreases their migration rate
